Experimental data taken from ChEMBL document CHEMBL1201862, “PubChem BioAssay data set” (2004).
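96-well plates; 48 h exposure; 5 concentrations. Endpoints by linear interpolation between flanking doses. Not reached: highest tested concentration assigned. Here, GI50 denotes the concentration required for 50% inhibition of growth.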 Calls of active or inactive are those of the source. No stated cut-off is given here; in the data, active = GI50 up to about 1.1 µM and inactive = higher.

Legend:
Assay in all cases: DTP human tumour cell line panel, 48 h
MDA-N = system: MDA-N
M14 = system: M14
SK-OV-3 = system: SK-OV-3
HOP-92 = system: HOP-92
NCI/ADR-RES = system: NCI/ADR-RES
SK-MEL-28 = system: SK-MEL-28
Malme-3M = system: Malme-3M
SNB-19 = system: SNB-19
SK-MEL-2 = system: SK-MEL-2
MOLT-4 = system: MOLT-4
U-251 = system: U-251
SR = system: SR
COLO 205 = system: COLO 205
EKVX = system: EKVX
OVCAR-3 = system: OVCAR-3
ACHN = system: ACHN
RXF 393 = system: RXF 393
UACC-257 = system: UACC-257
T47D = system: T47D
SNB-75 = system: SNB-75

Measured: GI50

NC(=O)c1cc(N(CCO)CCO)c([N+](=O)[O-])cc1[N+](=O)[O-]
inactive: MDA-N > 100 µM | M14 > 100 µM | SK-OV-3 > 100 µM | HOP-92 > 100 µM | NCI/ADR-RES > 100 µM | SK-MEL-28 > 100 µM | Malme-3M > 100 µM | SNB-19 > 100 µM | SK-MEL-2 > 100 µM | MOLT-4 > 100 µM | U-251 > 100 µM | SR > 100 µM | COLO 205 > 100 µM | EKVX > 100 µM | OVCAR-3 > 100 µM | ACHN > 100 µM | RXF 393 > 100 µM | UACC-257 > 100 µM | T47D > 100 µM

C=C1C(=O)C=C[C@]2(C)CC[C@H]3C(=C)C(=O)O[C@@H]3[C@@H]12
active: MOLT-4 0.52 µM | COLO 205 0.964 µM | ACHN 0.9 µM
inactive: MDA-N 1.88 µM | M14 1.76 µM | SK-OV-3 8.73 µM | HOP-92 2.87 µM | NCI/ADR-RES 2.34 µM | SK-MEL-28 1.91 µM | Malme-3M 1.97 µM | SNB-19 14.6 µM | SK-MEL-2 2.55 µM | U-251 2.13 µM | SR 1.79 µM | EKVX 3.17 µM | OVCAR-3 1.85 µM | RXF 393 1.45 µM | UACC-257 2.67 µM | T47D 2.22 µM

C=C(C(=O)OC)[C@H]1CC/C(C)=C/CC[C@@](C)(O)C=CC[C@@]2(C)O[C@@H]2C1
inactive: MDA-N 49.4 µM | M14 62.8 µM | SK-OV-3 > 100 µM | SNB-75 > 100 µM | HOP-92 19.1 µM | NCI/ADR-RES 14.3 µM | SK-MEL-28 10.9 µM | SNB-19 > 100 µM | SK-MEL-2 97.1 µM | MOLT-4 12.7 µM | U-251 40.4 µM | SR 9.93 µM | COLO 205 13.6 µM | EKVX 20.8 µM | OVCAR-3 17.7 µM | ACHN 36.3 µM | RXF 393 32.4 µM | UACC-257 27.5 µM | T47D 37.3 µM

CC[C@@H]1CC[C@@H]2[C@H](CC[C@]3(C)[C@@H](O[N+](=O)[O-])CC[C@@H]23)[C@H]1C(C)=O
inactive: MDA-N 28.9 µM | M14 30.8 µM | SNB-75 27.6 µM | HOP-92 21.6 µM | NCI/ADR-RES 21.8 µM | SK-MEL-28 30.3 µM | Malme-3M 25.4 µM | SNB-19 56.5 µM | MOLT-4 24.3 µM | U-251 32.4 µM | SR 25.6 µM | COLO 205 7.85 µM | EKVX 16.8 µM | OVCAR-3 64.1 µM | ACHN 28.4 µM | RXF 393 28.2 µM | UACC-257 20 µM | T47D 12.9 µM

CCC1=C(C)C(=O)N/C1=C\c1[nH]c(C)c([C@H](C)CCN)c1C
inactive: MDA-N 15.3 µM | M14 15.8 µM | SK-OV-3 16.9 µM | SNB-75 10.1 µM | HOP-92 14.6 µM | NCI/ADR-RES 20 µM | SK-MEL-28 17.3 µM | Malme-3M 18.7 µM | SK-MEL-2 18.7 µM | MOLT-4 34 µM | U-251 15.1 µM | SR 50.6 µM | COLO 205 16.4 µM | EKVX 14.4 µM | OVCAR-3 16 µM | ACHN 18.6 µM | T47D 9.98 µM

C=C(C)C1CC2(C)C(C)CC(O)CC2C(OC(=O)C=C(C)C)C1O (stereo unspecified)
inactive: MDA-N 36.4 µM | M14 33.7 µM | SK-OV-3 58.6 µM | SNB-75 11.6 µM | HOP-92 23.2 µM | NCI/ADR-RES 30.5 µM | SK-MEL-28 51.2 µM | Malme-3M 45.6 µM | SNB-19 22.2 µM | SK-MEL-2 61.5 µM | MOLT-4 18.1 µM | U-251 40 µM | SR 17.8 µM | COLO 205 16.3 µM | EKVX 34.8 µM | ACHN 18.6 µM | RXF 393 26.9 µM | UACC-257 53.1 µM | T47D 31.8 µM

COC(=O)c1cncc2c1CC1C3(C(=O)OC)C=NC(C4C(CO)=CCC43)C21C (stereo unspecified)
inactive: MDA-N > 100 µM | M14 > 100 µM | SNB-75 83.4 µM | HOP-92 > 100 µM | NCI/ADR-RES > 100 µM | SK-MEL-28 > 100 µM | Malme-3M > 100 µM | SNB-19 > 100 µM | SK-MEL-2 > 100 µM | MOLT-4 > 100 µM | U-251 > 100 µM | SR > 100 µM | COLO 205 > 100 µM | EKVX > 100 µM | ACHN > 100 µM | RXF 393 > 100 µM | UACC-257 > 100 µM | T47D > 100 µM

Cc1csc2[n+]1C(=O)/C(=C\c1ccc([N+](=O)[O-])cc1)S2
inactive: MDA-N 27.8 µM | M14 34 µM | SK-OV-3 31.5 µM | SNB-75 20.3 µM | HOP-92 19.4 µM | NCI/ADR-RES 25.4 µM | SK-MEL-28 36.9 µM | SNB-19 25.4 µM | SK-MEL-2 25.6 µM | MOLT-4 29.5 µM | U-251 18.7 µM | SR 32.5 µM | COLO 205 19.7 µM | OVCAR-3 15.3 µM | ACHN 25.4 µM | RXF 393 29 µM | UACC-257 29.9 µM | T47D 21.2 µM

COc1cc2oc(=O)cc(C)c2cc1O
inactive: MDA-N > 100 µM | M14 > 100 µM | SNB-75 > 100 µM | HOP-92 46.3 µM | NCI/ADR-RES > 100 µM | SK-MEL-28 > 100 µM | Malme-3M > 100 µM | SNB-19 > 100 µM | SK-MEL-2 > 100 µM | MOLT-4 > 100 µM | U-251 > 100 µM | SR > 100 µM | COLO 205 > 100 µM | EKVX > 100 µM | OVCAR-3 > 100 µM | ACHN > 100 µM | RXF 393 > 100 µM | UACC-257 > 100 µM | T47D 41 µM

O=C1/C(=C/c2ccccc2)N=C(c2ccccc2)N1C1Nc2cc3c(cc2S1)NC(N1C(=O)/C(=C/c2ccccc2)N=C1c1ccccc1)S3 (stereo unspecified)
inactive: MDA-N 8.61 µM | M14 9.51 µM | SK-OV-3 > 100 µM | HOP-92 2.31 µM | NCI/ADR-RES 44.6 µM | SK-MEL-28 6.64 µM | SK-MEL-2 23.6 µM | MOLT-4 4.13 µM | U-251 4.72 µM | SR 5.28 µM | EKVX 95.7 µM | OVCAR-3 37.1 µM | ACHN 29.5 µM | RXF 393 18.4 µM | UACC-257 3.78 µM | T47D 30.4 µM

CCC1(CC)C(=O)N(C(=O)c2ccc(C)cc2)N(C(=O)c2ccc(C)cc2)C1=O
inactive: MDA-N 63.2 µM | M14 > 75 µM | SK-OV-3 > 75 µM | SNB-75 14.4 µM | NCI/ADR-RES 34.2 µM | SK-MEL-28 > 75 µM | Malme-3M 14.4 µM | SNB-19 > 75 µM | SK-MEL-2 > 75 µM | MOLT-4 20 µM | U-251 35 µM | SR 26.2 µM | COLO 205 > 75 µM | EKVX 48.6 µM | OVCAR-3 17.7 µM | ACHN 26.8 µM | RXF 393 > 75 µM | UACC-257 > 75 µM | T47D 36.1 µM
